The test system of this experiment is Bcl-xL inhibition of cBidmt1/Bax. Put plainly: In vitro reconstitution liposome permeabilization, cBidmt1/Bax with Bcl-xL. The class given is biochemical. As to conditions: ANTS/DPX liposomes, 100 nM Bax, 20 nM cBidmt1, pre-incubation pH 9, 45 min, 37 °C, 5 h, pH 7. The text has this: This purified assay system measures direct interactions in which full-length untagged Bcl-xL inhibits permeabilization by binding full-length caspase 8 cleaved Bid (cBid) and/or full-length untagged Bax, thereby preventing Bax oligomerization in membranes. […] In these assays liposome permeabilization by activated Bax releases the entrapped fluorophore/quencher pair 8-aminonaphthalene-1,3,6-trisulfonic acid (ANTS)/p-xylene-bispyridinium (DPX), resulting in a measurable increase of fluorescence.
(A–E) in vitro reconstitution assay on liposome permeabilization. […] The treated Bcl-xL was then added to reactions containing ANTS-DPX liposomes, 100 nM Bax and 20 nM of either cBid (A,B) or cBidmt1(C,D) at pH 7. Liposome permeabilization was quantified by fluorescence after 5h incubation at 37 °C where 100% release was defined as the fluorescence change due to lipid solubilization with 1% Triton X-100. […] Error bars, std. dev. n = 3. […] Cyto c extra-mito: in the supernatant, analysed by Western blot. […]
Figure 10 A,B) or cBid mt1 (Supplementary Figure 10 C,D) at pH 7 to quantify the activity of Bcl-xL inhibition of liposome permeablization. […]
then added to reactions containing ANTS-DPX liposomes, 100nM Bax and 20nM of either c Bid (A, C) or cBid mt1(B, D) at pH 7 and liposome permeabilization was quantified by fluorescence […]

Consider “TCTP: Translationally Controlled Tumor Protein (TCTP/tpt1), recombinant full-length”, for which the “effect on Bcl-xL inhibition of cBidmt1/Bax-mediated liposome permeabilization” value is listed as “enhanced Bcl-xL inhibition”.
